Assay results from patent publication US20230391786A1, “cGAS INHIBITORS” (Eli Lilly and Company, priority 2022, published 2023).
Structures can show the parent of a compound that is named as a salt. Where two headings read alike, the source gives them in different places.

Tests used:
recombinant human cGAS = recombinant human cGAS (Homo sapiens (Human), UniProt Q8N884); assay: In vitro inhibition assay of cGAS activity (cGAMP production, RapidFire mass spectrometry); format: biochemical; settings: 10 nM recombinant human cGAS, 60 nM 75-bp dsDNA, ATP, GTP, room temperature 3 hours, read-out: IC50 (μM), In vitro inhibition assay for Compounds 95-348
In short: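 Full-length His6-tagged human cGAS (10 nM, E. coli-expressed) was incubated 3 h at room temperature with 60 nM 75-bp dsDNA, ATP, 50 μM GTP and compound at pH 7.5 with 5 mM MgCl2. cGAMP formation was measured by RapidFire mass spectrometry, and IC50 was taken from a 4-parameter logistic fit.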

[1] = test system: cGAS activity in THP1 cells (IFNb as marker); assay: Cellular assay to measure cGAS activity (IFNb production in PMA-differentiated THP1 cells stimulated by RDG-Adenovirus-GFP); format: cell-based, human; settings: PMA differentiated, RDG-Adenovirus-GFP 1000 MOI, IFNb AlphaLISA, overnight incubation, read-out: IC50 (μM), Cellular assay for Compounds 95-348
In short: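 PMA-differentiated THP1 cells were infected with RDG-Adenovirus-GFP at 1000 MOI for 4 h, then exposed overnight to test compounds. IFNb in the supernatant was quantified by AlphaLISA as a cGAS activity marker, and IC50 was fitted with a 4-parameter logistic equation.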

[2] = Homo sapiens, THP-1, THP1 cells

recombinant human cGAS, sequence (Q8N884 whole entry): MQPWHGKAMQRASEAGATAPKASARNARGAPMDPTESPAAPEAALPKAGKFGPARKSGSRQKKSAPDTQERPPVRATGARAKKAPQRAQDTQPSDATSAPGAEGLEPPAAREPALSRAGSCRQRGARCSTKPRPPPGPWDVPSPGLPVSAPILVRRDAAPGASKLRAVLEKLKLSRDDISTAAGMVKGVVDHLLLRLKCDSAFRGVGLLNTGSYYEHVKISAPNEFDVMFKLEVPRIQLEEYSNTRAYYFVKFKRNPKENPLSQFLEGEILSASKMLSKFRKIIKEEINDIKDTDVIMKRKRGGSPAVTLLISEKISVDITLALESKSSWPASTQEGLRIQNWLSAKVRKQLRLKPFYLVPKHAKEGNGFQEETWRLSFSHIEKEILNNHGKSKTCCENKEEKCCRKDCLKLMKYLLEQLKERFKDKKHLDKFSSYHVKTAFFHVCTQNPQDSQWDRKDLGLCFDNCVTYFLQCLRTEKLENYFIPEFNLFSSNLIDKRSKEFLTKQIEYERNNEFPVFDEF

| SMILES | IC50 (recombinant human cGAS) [µM] | IC50 [1, 2] [µM] | IC50 ([1]; THP1 cells) [µM] |
| --- | --- | --- | --- |
| Clc1cc(OC2COC2)c2c(-c3cn[nH]c3)c[nH]c2c1Cl [Example 206, 6,7-Dichloro-4-(oxetan-3-yloxy)-3-(1H-pyrazol-4-yl)-1H-indole] | 0.0421 | 1.28 | – |
| OCCCOc1cc(Cl)c(Cl)c2[nH]c(CO)c(-c3cn[nH]c3)c12 [Example 338, 3-((6,7-Dichloro-2-(hydroxymethyl)-3-(1H-pyrazol-4-yl)-1H-indol-4-yl)oxy)propan-1-ol] | 0.00474 | 0.198 | – |
| COc1cc2c(-c3cn[nH]c3)cn(-c3ccc(CO)nn3)c2cc1Cl [Example 342, (6-(6-chloro-5-methoxy-3-(1H-pyrazol-4-yl)-1H-indol-1-yl)pyridazin-3-yl)methanol] | 0.0261 | 0.964 | – |
| CC(=O)N1CCn2c(c(-c3cn[nH]c3)c3c(OCC#N)cc(Cl)c(Cl)c32)C1 [Example 280, 2-((2-Acetyl-6,7-dichloro-10-(1H-pyrazol-4-yl)-1,2,3,4-tetrahydropyrazino[1,2-a]indol-9-yl)oxy)acetonitrile] | 0.0087 | 0.872 | – |
| O=C(CO)Nc1cc(Cl)c(Cl)c2c1c(-c1cn[nH]c1)c1n2CCN(C(=O)CO)C1 [Example 145, N-(6,7-Dichloro-2-(2-hydroxyacetyl)-10-(1H-pyrazol-4-yl)-1,2,3,4-tetrahydropyrazino[1,2-a]indol-9-yl)-2-hydroxyacetamide] | 0.0804 | > 10 | – |
| O=C(C1COCCOC1)N1CCn2c(c(-c3cn[nH]c3)c3ccc(Cl)c(Cl)c32)C1 [Example 310, (6,7-Dichloro-10-(1H-pyrazol-4-yl)-3,4-dihydropyrazino[1,2-a]indol-2(1H)-yl)(1,4-dioxepan-6-yl)methanone] | 0.0428 | > 10 | – |
| FC(F)COc1cc(Cl)c(Cl)c2[nH]cc(-c3cn[nH]c3)c12 [Example 184, 6,7-Dichloro-4-(2,2-difluoroethoxy)-3-(1H-pyrazol-4-yl)-1H-indole] | 0.0385 | 1.13 | – |
| O=C(Nc1cc(Cl)c(Cl)c2c1c(-c1cn[nH]c1)c1n2CCN(C(=O)[C@@H]2COCCO2)C1)C(F)F [Example 273, N-[6,7-Dichloro-2-[(2 S)-1,4-dioxane-2-carbonyl]-10-(1H-pyrazol-4-yl)-3,4-dihydro-1H-pyrazino[1,2-a]indol-9-yl]-2,2-difluoro-acetamide] | 0.0206 | 0.56 | – |
| Cc1nc(C)n(CC(=O)N2CCn3c(c(-c4cn[nH]c4)c4c(OCC#N)cc(Cl)c(Cl)c43)C2)n1 [Example 293, 2-((6,7-Dichloro-2-(2-(3,5-dimethyl-1H-1,2,4-triazol-1-yl)acetyl)-10-(1H-pyrazol-4-yl)-1,2,3,4-tetrahydropyrazino[1,2-a]indol-9-yl)oxy)acetonitrile] | 0.0447 | > 10 | – |
| CN1CCOC[C@H]1CC(=O)N1CCn2c(c(-c3cn[nH]c3)c3c(OCC#N)cc(Cl)c(Cl)c32)C1 [Example 115, (R)-2-((6,7-Dichloro-2-(2-(4-methylmorpholin-3-yl)acetyl)-10-(1H-pyrazol-4-yl)-1,2,3,4-tetrahydropyrazino[1,2-a]indol-9-yl)oxy)acetonitrile] | 0.0288 | 1.12 | – |
| CCNc1cc(Cl)c(Cl)c2[nH]cc(-c3cn[nH]c3)c12 [Example 150, 6,7-Dichloro-N-ethyl-3-(1H-pyrazol-4-yl)-1H-indol-4-amine] | 0.0303 | 1.92 | – |
| N#CCOc1cc(Cl)c(Cl)c2c1c(-c1cn[nH]c1)c1n2CCN(c2ncccn2)C1 [Example 204, 2-[[6,7-Dichloro-10-(1H-pyrazol-4-yl)-2-pyrimidin-2-yl-3,4-dihydro-1H-pyrazino[1,2-a]indol-9-yl]oxy]acetonitrile] | 0.0201 | 0.854 | – |
| COc1cc2c(-c3cn[nH]c3)cn(-c3cn(CCO)nn3)c2cc1Cl [Example 152, 2-[4-[6-Chloro-5-methoxy-3-(1H-pyrazol-4-yl)indol-1-yl]triazol-1-yl]ethanol] | 0.0142 | 1.4 | – |
| OCCCNc1cc(Cl)c(Cl)c2c1c(-c1cn[nH]c1)cn2-c1cn(CCO)nn1 [Example 198, 3-[[6,7-Dichloro-1-[1-(2-hydroxyethyl)triazol-4-yl]-3-(1H-pyrazol-4-yl)indol-4-yl]amino]propan-1-ol] | 0.011 | 0.395 | – |
| O=C(Nc1cc(Cl)c(Cl)c2c1c(-c1cn[nH]c1)c1n2CCN(C(=O)CN2CCOC2=O)C1)C(F)F [Example 274, N-[6,7-Dichloro-2-[2-(2-oxooxazolidin-3-yl)acetyl]-10-(1H-pyrazol-4-yl)-3,4-dihydro-1H-pyrazino[1,2-a]indol-9-yl]-2,2-difluoro-acetamide] | 0.023 | 3.55 | – |
| CC(=O)N[C@H]1Cc2c(-c3cn[nH]c3)c3c(OCC#N)cc(Cl)c(Cl)c3n2C1 [Example 245, (S)—N-(5,6-Dichloro-8-(cyanomethoxy)-9-(1H-pyrazol-4-yl)-2,3-dihydro-1H-pyrrolo[1,2-a]indol-2-yl)acetamide] | 0.0122 | 0.872 | – |
| N#CCOc1cc(Cl)c(Cl)c2c1c(-c1cn[nH]c1)c1n2CCN(C(=O)c2cnccn2)C1 [Example 286, 2-((6,7-Dichloro-2-(pyrazine-2-carbonyl)-10-(1H-pyrazol-4-yl)-1,2,3,4-tetrahydropyrazino[1,2-a]indol-9-yl)oxy)acetonitrile] | 0.0131 | 0.455 | – |
| COCc1[nH]c2c(Cl)c(Cl)cc(NC(=O)C(F)F)c2c1-c1cn[nH]c1 [Example 132, N-(6,7-Dichloro-2-(methoxymethyl)-3-(1H-pyrazol-4-yl)-1H-indol-4-yl)-2,2-difluoroacetamide] | 0.0202 | 0.317 | – |
| O[C@@H]1C[C@H](Oc2cc(Cl)c(Cl)c3[nH]cc(-c4cn[nH]c4)c23)[C@@H](O)C1 (single isomer, unassigned) [Example 271, 4-[[6,7-Dichloro-3-(1H-pyrazol-4-yl)-1H-indol-4-yl]oxy]cyclopentane-1,3-diol] | 0.184 | – | 6.75 |
| CC(=O)N1CCn2c(c(-c3cn[nH]c3)c3c(NCCCO)cc(Cl)c(Cl)c32)C1 [Example 253, 1-[6,7-Dichloro-9-(3-hydroxypropylamino)-10-(1H-pyrazol-4-yl)-3,4-dihydro-1H-pyrazino[1,2-a]indol-2-yl]ethanone] | 0.014 | 0.509 | – |
| CCNc1cc(Cl)c(Cl)c2c1c(-c1cn[nH]c1)c1n2CCN(C(C)=O)C1 [Example 255, 1-(6,7-dichloro-9-(ethylamino)-10-(1H-pyrazol-4-yl)-3,4-dihydropyrazino[1,2-a]indol-2(1H)-yl)ethan-1-one hydrochloride] | 0.0326 | 2.09 | – |

Now from value to molecule:

| IC50 (recombinant human cGAS) [µM] | IC50 [1, 2] [µM] | IC50 ([1]; THP1 cells) [µM] | SMILES |
| --- | --- | --- | --- |
| 0.0427 | > 10 | – | CN1CCOCC1C(=O)N1CCn2c(c(-c3cn[nH]c3)c3ccc(Cl)c(Cl)c32)C1 (centres unmarked) [Example 309, (6,7-Dichloro-10-(1H-pyrazol-4-yl)-3,4-dihydropyrazino[1,2-a]indol-2(1H)-yl)(4-methylmorpholin-3-yl)methanone] |
| 0.0282 | 1.59 | – | CC(=O)NCc1c(-c2cn[nH]c2)c2ccc(Cl)c(Cl)c2n1C [Example 134, N-[[6,7-Dichloro-1-methyl-3-(1H-pyrazol-4-yl)indol-2-yl]methyl]acetamide] |
| 0.0275 | 3.3 | – | CNC(=O)CC(=O)NC1CCc2c(-c3cn[nH]c3)c3ccc(Cl)c(Cl)c3n2C1 (centres unmarked) [Example 141, N′-[3,4-Dichloro-10-(1H-pyrazol-4-yl)-6,7,8,9-tetrahydropyrido[1,2-a]indol-7-yl]-N-methyl-propanediamide] |
| 0.0361 | 1.56 | – | O=C(Cc1cnccn1)NCc1[nH]c2c(Cl)c(Cl)ccc2c1-c1cn[nH]c1 [Example 112, N-((6,7-Dichloro-3-(1H-pyrazol-4-yl)-1H-indol-2-yl)methyl)-2-(pyrazin-2-yl)acetamide] |
| 0.00769 | – | 0.914 | O=C(CO)NC1CCn2c1c(-c1cn[nH]c1)c1ccc(Cl)c(Cl)c12 (single isomer, unassigned) [Example 346, N-(5,6-Dichloro-9-(1H-pyrazol-4-yl)-2,3-dihydro-1H-pyrrolo[1,2-a]indol-1-yl)-2-hydroxyacetamide] |
| 0.0391 | 2.19 | – | OC1Cc2c(-c3cn[nH]c3)c3ccc(Cl)c(Cl)c3n2C1 (centres unmarked) [Example 278, 5,6-Dichloro-9-(1H-pyrazol-4-yl)-2,3-dihydro-1H-pyrrolo[1,2-a]indol-2-ol] |
| 0.0125 | > 10 | – | O=C(O)Cn1cc(-n2cc(-c3cn[nH]c3)c3ccc(Cl)c(Cl)c32)nn1 [Example 212, 2-[4-[6,7-Dichloro-3-(1H-pyrazol-4-yl)indol-1-yl]triazol-1-yl]acetic acid] |
| 0.0764 | 3.42 | – | CC(=O)NCCn1cc(-c2cn[nH]c2)c2c(OCC#N)cc(Cl)c(Cl)c21 [Example 136, N-[2-[6,7-Dichloro-4-(cyanomethoxy)-3-(1H-pyrazol-4-yl)indol-1-yl]ethyl]acetamide] |
| 0.0711 | 0.815 | – | CC(=O)Nc1cc(Cl)c(Cl)c2[nH]c(CO)c(-c3cn[nH]c3)c12 [Example 130, N-(6,7-Dichloro-2-(hydroxymethyl)-3-(1H-pyrazol-4-yl)-1H-indol-4-yl)acetamide] |
| 0.00511 | 0.807 | – | CC(=O)NCc1[nH]c2c(Cl)c(Cl)cc(OCC#N)c2c1-c1cn[nH]c1 [Example 153, N-((6,7-Dichloro-4-(cyanomethoxy)-3-(1H-pyrazol-4-yl)-1H-indol-2-yl)methyl)acetamide] |
